According to article PMC7215599, “Synthesis, Antitumor Evaluation, Molecular Modeling and Quantitative Structure–Activity Relationship (QSAR) of Novel 2-[(4-Amino-6-N-substituted-1,3,5-triazin-2-yl)methylthio]-4-chloro-5-methyl-N-(1H-benzo[d]imidazol-2(3H)-ylidene)Benzenesulfonamides” (International Journal of Molecular Sciences, 2020):

Legend:
[1] = test system: HCT-116 (colon cancer) cell line; test: MTT cell viability assay, HCT-116; assay type: cell-based, human; conditions: for IC50: MTT, 72 h, 1-100 µM, mean ± SD
Method: (§1) Compounds 6–49 were evaluated in vitro for their effects on the viability of the three human cancer cell lines: HCT-116 (colon cancer), MCF-7 (breast cancer) and HeLa (cervical cancer) as well as the non-cancerous keratinocyte cell line (HaCaT). The concentration required for 50% inhibition of cell viability IC50 was calculated and compared with the reference drug cisplatin, the results are shown in Table 1.
(§2) Cell lines: colon cancer (HCT-116), breast cancer (MCF-7), cervical cancer (HeLa), the human keratinocyte cell line (HaCaT); NT—not tested; IC50 was measured at concentrations 1, 10, 25, 50, and 100 µM. IC50 values are expressed as the mean ± SD of at last three independent experiments.
(§3) All chemicals, if not stated otherwise, were obtained from Sigma–Aldrich (St. Louis, MO, USA). The HCT-116 cell lines was purchased from ATCC (ATCC-No: CCL-247), while the MCF-7, HeLa and HaCaT cell lines were purchased from Cell Lines Services (Eppelheim, Germany). Cells were cultured in Dulbecco’s modified Eagle’s medium (DMEM) supplemented with 10% fetal bovine serum, 2 mM glutamine, 100 units/mL penicillin, and 100 µg/mL streptomycin. Cultures were maintained in a humidified atmosphere with 5% carbon dioxide at 37 °C in an incubator (Heraceus, HeraCell).
(§4) Cell viability was examined using the MTT (3-(4,5-dimethylthiazol-2-yl)-2,5-diphenyltetrazolium bromide) assay. Cells were seeded in 96-well plates at a density of 5 × 10^3 cells/well and treated for 72 h with the tested compounds in the concentration range of 1–100 µM (1, 10, 25, 50 and 100 µM). Then, MTT (0.5 mg/mL) was added to the medium and cells were further incubated for 2 h at 37 °C. In the next stage, cells were lysed with DMSO and the absorbance of the formazan solution was measured at 550 nm with a plate reader (1420 multilabel counter, Victor, Jügesheim, Germany). The experiment was performed in triplicate. Values are expressed as the mean ± SD of at least three independent experiments. Cisplatin was used as a positive control.

[2] = test system: MCF-7 (breast cancer) cell line; test: MTT cell viability assay, MCF-7; assay type: cell-based, human; conditions: MTT, 72 h, 1-100 µM, mean ± SD
Method: as §1, §2, §3, §4

[3] = test system: HeLa (cervical cancer) cell line; test: MTT cell viability assay, HeLa; assay type: cell-based, human; conditions: for IC50: 72 h, MTT, 1-100 µM, mean ± SD
Method: as §1, §2, §3, §4

[4] = test system: HaCaT (non-cancerous keratinocyte cell line); test: MTT cell viability assay, HaCaT; assay type: cell-based; conditions: Homo sapiens, 72 h, 1-100 µM, mean ± SD, non-cancerous cells
Method: as §1, §2, §3, §4

IC50 ([1]; Homo sapiens, HCT-116, 72 h) [µM]	IC50 ([2]; Homo sapiens, MCF7, 72 h) [µM]	IC50 ([3]; Homo sapiens, HeLa) [µM]	IC50 [2] [µM]	IC50 [3] [µM]	IC50 [1] [µM]	SMILES	IC50 [4] [µM]	selectivity ratio HaCaT/HCT-116 ([1]; ratio of IC50 values)	selectivity ratio HaCaT/HeLa ([3]; ratio of IC50 values)
22 ± 1	27 ± 1	> 100	–	92 ± 2	–	Cc1cc(S(=O)(=O)N=c2[nH]c3ccccc3[nH]2)c(SCc2nc(N)nc(NCc3ccccc3)n2)cc1Cl [Compound 15, 2-{[4-Amino-6-(benzylamino)-1,3,5-triazin-2-yl]metylthio}-N-(1H-benzo[d]imidazol-2(3H)-ylidene)-4-chloro-5-methylbenzenesulfonamide]	–	–	–
33 ± 1	32 ± 1	33 ± 1	–	–	–	Cc1cc(S(=O)(=O)N=c2[nH]c3ccccc3[nH]2)c(SCc2nc(N)nc(N(C)c3ccccc3)n2)cc1Cl [Compound 16, 2-[{4-Amino-6-[methyl(phenyl)amino]-1,3,5-triazin-2-yl}metylthio]-N-(1H-benzo[d]imidazol-2(3H)-ylidene)-4-chloro-5-methylbenzenesulfonamide]	45 ± 2	–	–
29 ± 1	31 ± 1	30 ± 1	–	–	–	Cc1cc(S(=O)(=O)N=c2[nH]c3ccccc3[nH]2)c(SCc2nc(N)nc(N(C)c3ccc(Cl)cc3)n2)cc1Cl [Compound 17, 2-[{4-Amino-6-[(4-chlorophenyl)(methyl)amino]-1,3,5-triazin-2-yl}methylthio]-N-(1H-benzo[d]imidazol-2(3H)-ylidene)-4-chloro-5-methylbenzenesulfonamide]	43 ± 2	–	–
15 ± 1	24 ± 1	17 ± 0.5	–	–	–	Cc1cc(S(=O)(=O)N=c2[nH]c3ccccc3[nH]2)c(SCc2nc(N)nc(N3CCN(c4ccccc4F)CC3)n2)cc1Cl [Compound 21, 2-[{4-Amino-6-[4-(2-fluorophenyl)piperazin-1-yl]-1,3,5-triazin-2-yl}metylthio]-N-(1H-benzo[d]imidazol-2(3H)-ylidene)-4-chloro-5-methylbenzenesulfonamide]	32 ± 1	–	–
7 to 11	15 to 24	11 to 18	24 ± 1	11 ± 0.5	11 ± 0.5	Cc1cc(S(=O)(=O)N=c2[nH]c3ccccc3[nH]2)c(SCc2nc(N)nc(N3CCN(c4ccc(C(F)(F)F)cc4)CC3)n2)cc1Cl [Compound 22, 2-{[4-Amino-6-{4-[4-(trifluoromethyl)phenyl]piperazin-1-yl}-1,3,5-triazin-2-yl]methylthio}-N-(1H-benzo[d]imidazol-2(3H)-ylidene)-4-chloro-5-methylbenzenesulfonamide]	34 ± 1	3.1	3.1
17 ± 1	20 ± 0.6	27 ± 0.5	–	–	–	Cc1cc(S(=O)(=O)N=c2[nH]c3ccccc3[nH]2)c(SCc2nc(N)nc(N3CCN(c4cccc(Cl)c4)CC3)n2)cc1Cl [Compound 24, 2-[{4-Amino-6-[4-(3-chlorophenyl)piperazin-1-yl]-1,3,5-triazin-2-yl}methylthio]-N-(1H-benzo[d]imidazol-2(3H)-ylidene)-4-chloro-5-methylbenzenesulfonamide]	42 ± 2	–	–
16 ± 1	46 ± 2	28 ± 1	–	–	–	Cc1cc(S(=O)(=O)N=c2[nH]c3ccccc3[nH]2)c(SCc2nc(N)nc(N3CCN(c4ccc(Cl)c(Cl)c4)CC3)n2)cc1Cl [Compound 25, 2-[{4-Amino-6-[4-(3,4-dichlorophenyl)piperazin-1-yl]-1,3,5-triazin-2-yl}metylthio]-N-(1H-benzo[d]imidazol-2(3H)-ylidene)-4-chloro-5-methylbenzenesulfonamide]	52 ± 2	–	–
17 ± 0.5	20 ± 1	21 ± 0.4	–	–	–	Cc1cc(S(=O)(=O)N=c2[nH]c3ccccc3[nH]2)c(SCc2nc(N)nc(N3CCN(c4ccc(F)c(Cl)c4)CC3)n2)cc1Cl [Compound 26, 2-[{4-Amino-6-[4-(3-chloro-4-fluorophenyl)piperazin-1-yl]-1,3,5-triazin-2-yl}methylthio]-N-(1H-benzo[d]imidazol-2(3H)-ylidene)-4-chloro-5-methylbenzenesulfonamide]	35 ± 1	–	–
> 100	> 100	> 100	134 ± 9	56 ± 2	195 ± 4	Cc1cc(S(=O)(=O)N=c2[nH]c3ccccc3[nH]2)c(SCc2nc(N)nc(N3CCN(c4ccc([N+](=O)[O-])cc4)CC3)n2)cc1Cl [Compound 29, 2-[{4-Amino-6-[4-(4-nitrophenyl)piperazin-1-yl]-1,3,5-triazin-2-yl}metylthio]-N-(1H-benzo[d]imidazol-2(3H)-ylidene)-4-chloro-5-methylbenzenesulfonamide]	–	–	–

Further lines, the compound ahead of its results:

SMILES	IC50 ([1]; Homo sapiens, HCT-116, 72 h) [µM]	IC50 ([2]; Homo sapiens, MCF7, 72 h) [µM]	IC50 ([3]; Homo sapiens, HeLa) [µM]	IC50 [2] [µM]	IC50 [3] [µM]	IC50 [1] [µM]	IC50 [4] [µM]	selectivity ratio HaCaT/HCT-116 ([1]; ratio of IC50 values)	selectivity ratio HaCaT/HeLa ([3]; ratio of IC50 values)
Cc1cc(S(=O)(=O)N=c2[nH]c3ccccc3[nH]2)c(SCc2nc(N)nc(N(C)C)n2)cc1Cl [Compound 6, 2-{[4-Amino-6-(dimethylamino)-1,3,5-triazin-2-yl]methylthio}-N-(1H-benzo[d]imidazol-2(3H)-ylidene)-4-chloro-5-methylbenzenesulfonamide]	49 ± 1	52 ± 1	50 ± 2	–	–	–	57 ± 3	–	–
Cc1cc(S(=O)(=O)N=c2[nH]c3ccccc3[nH]2)c(SCc2nc(N)nc(N3CCOCC3)n2)cc1Cl [Compound 7, 2-[(4-Amino-6-morpholino-1,3,5-triazin-2-yl)methylthio]-N-(1H-benzo[d]imidazol-2(3H)-ylidene)-4-chloro-5-methylbenzenesulfonamide]	75 ± 3	> 100	> 100	99 ± 3	86 ± 3	–	102 ± 4	–	–
CC1=NN(c2nc(N)nc(CSc3cc(Cl)c(C)cc3S(=O)(=O)N=c3[nH]c4ccccc4[nH]3)n2)C(C)(C)C1 [Compound 8, 2-{[4-Amino-6-(3,5,5-trimethyl-4,5-dihydro-1H-pyrazol-1-yl)-1,3,5-triazin-2-yl]metylthio}-N-(1H-benzo[d]imidazol-2(3H)-ylidene)-4-chloro-5-methylbenzenesulfonamide]	23 ± 1	34 ± 2	31 ± 2	–	–	–	43 ± 2	–	–
Cc1cc(S(=O)(=O)N=c2[nH]c3ccccc3[nH]2)c(SCc2nc(N)nc(N3CCCc4ccccc43)n2)cc1Cl [Compound 10, 2-{[4-Amino-6-(3,4-dihydroquinolin-1(2H)-yl)-1,3,5-triazin-2-yl]methylthio}-N-(1H-benzo[d]imidazol-2(3H)-ylidene)-4-chloro-5-methylbenzenesulfonamide]	32 ± 3	25 ± 1	30 ± 1	–	–	–	45 ± 2	–	–
Cc1cc(S(=O)(=O)N=c2[nH]c3ccccc3[nH]2)c(SCc2nc(N)nc(Nc3ccccc3)n2)cc1Cl [Compound 11, 2-{[4-Amino-6-(phenylamino)-1,3,5-triazin-2-yl]methylthio}-N-(1H-benzo[d]imidazol-2(3H)-ylidene)-4-chloro-5-methylbenzenesulfonamide]	37 ± 2	41 ± 1	39 ± 1	–	–	–	58 ± 2	–	–
Cc1cc(S(=O)(=O)N=c2[nH]c3ccccc3[nH]2)c(SCc2nc(N)nc(Nc3ccc(F)cc3)n2)cc1Cl [Compound 12, 2-[{4-Amino-6-[(4-fluorophenyl)amino]-1,3,5-triazin-2-yl}metylthio]-N-(1H-benzo[d]imidazol-2(3H)-ylidene)-4-chloro-5-methylbenzenesulfonamide]	36 ± 1	35 ± 2	36 ± 2	–	–	–	43 ± 2	–	–
Cc1cc(S(=O)(=O)N=c2[nH]c3ccccc3[nH]2)c(SCc2nc(N)nc(Nc3ccc(Cl)cc3)n2)cc1Cl [Compound 13, 2-[{4-Amino-6-[(4-chlorophenyl)amino]-1,3,5-triazin-2-yl}metylthio]-N-(1H-benzo[d]imidazol-2(3H)-ylidene)-4-chloro-5-methylbenzenesulfonamide]	32 ± 1	24 ± 1	35 ± 1	–	–	–	41 ± 2	–	–
COc1ccc(Nc2nc(N)nc(CSc3cc(Cl)c(C)cc3S(=O)(=O)N=c3[nH]c4ccccc4[nH]3)n2)cc1 [Compound 14, 2-[{4-Amino-6-[(4-methoxyphenyl)amino]-1,3,5-triazin-2-yl}metylthio]-N-(1H-benzo[d]imidazol-2(3H)-ylidene)-4-chloro-5-methylbenzenesulfonamide]	54 ± 2	41 ± 1	56 ± 2	–	–	–	65 ± 3	–	–
N.N.[Cl][Pt][Cl] [cisplatin, reference compound]	–	–	–	3 ± 0.1	3.8 ± 0.2	2.2 ± 0.1	–	–	–
